Measured values published in patent US20250332173A1, “COMPOUNDS AND METHODS FOR MODULATING NUCLEIC ACID SPLICING” (REMIX THERAPEUTICS INC., priority 2021, published 2025).
Read-outs that look alike come from different tables or passages of the source.

How the values were obtained:
[1] = system: MYB; experiment: HiBiT protein abundance assay, MYB HiBiT K562 cell line; format: cell-based, human
Experimental: (§1) Compounds described herein were used to screen for effects on quantitative protein abundance using a HiBit assay system (Promega). Quantitative protein abundance was determined by measuring the protein levels of HiBit-tagged protein targets expressed in cell culture via luminescence using the Nano-Glo HiBiT Lytic Detection System, which uses a split complementation assay format to reconstitute NanoBiT enzyme to generate a luminescent signal. A protein abundance assay was developed such that endogenous protein targets could be modified with the HiBiT peptide tag and their abundance could be assessed after compound treatment. Briefly, K562 cell lines containing a HiBiT-modification were treated with various compounds described herein (e.g., compounds of Formulas (I), (II), (III), (IV), (V), (VI), (VII), (VIII), or (IX)). After treatment for 24 hours, the protein abundance of a specific target was determined by measuring luminescence.
(§2) • Promega Nano-Glo HiBiT Lytic Detection System (cat #N3030) • Corning 384-well TC-treated microplates (cat #3570) • Synthego Engineered Cells Knock-In Clones
(§3) Cells were maintained in IMDM with 10% FBS. Before the assay, cells were diluted with […] growth media (IMDM+[…] media) and were seeded in a 384-well plate at a density of 10,000 cells/well (for each cell line listed in Table 5). Each compound was prepared as a 10-point 3-fold serial dilution in DMSO with the top dose at a final concentration of 10 μM in the well. Unmodified K562 cells were added at the previously specified density with DMSO to serve as an assay baseline and positive control (PC) and DMSO only with the respective modified cell lines was added to the negative control (NC) columns. Final DMSO concentration was kept at or below 0.25%. Treated cell plates were placed in an incubator at 37° C. with […] for 24 hours. After 24 hours, 25 μL of Complete HiBit Lytic reagent was added to each well at room temperature (e.g. one plate requiring 10 mL Lytic Buffer, 100 μL LgBiT Protein, 200 μL Lytic Substrate), shaken for 5 minutes at 600 RPM, then left to sit for 10 minutes for signal to stabilize before reading on a Spark Cyto plate reader (Tecan) with a 500 ms measurement time.
(§4) To determine compound effects on protein abundance of each target in Table 5, the percent response for each respective cell line was calculated at each compound concentration as follows:
(§5) For the normalized response at each concentration, a four-parameter logistical regression was fit to the data and the response was interpolated at the […] to determine a concentration for protein abundance at […] the untreated control.

[2] = system: HTT; experiment: HiBiT protein abundance assay, HTT HiBiT K562 cell line; format: cell-based, human
Experimental: as §1, §2, §3, §4, §5

[3] = system: Target C; experiment: HiBiT protein abundance assay, Target C (Promega Nano-Glo HiBiT Lytic Detection System, knock-in K562 cell line); format: cell-based, human; settings: Homo sapiens, K562, 24 h, read-out: Effect on protein abundance, Target C (IC50 category)
Experimental: as §2, §3, §4, §5

[4] = system: SMN2 mRNA; experiment: RT-qPCR splicing assay, SMN2 canonical junction (CJ) mRNA; format: cell-based, human; settings: Homo sapiens
Summary of the method: (§6)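 Read-out is canonical exon-exon junction mRNA quantified by RT-qPCR against a GAPDH, GUSB or PPIA control. Cells (A673 or K562) received compound for 24 h, top final dose 10 uM in an 11-point 3-fold series.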

[5] = system: K562 (human chronic myelogenous leukemia) cells; experiment: Cell Titer Glo 2.0 cell viability assay; format: cell-based; settings: Homo sapiens, K562, 72 h, read-out: K562 GI50
[6] = system: HTT mRNA; experiment: RT-qPCR splicing assay, HTT canonical junction (CJ) and alternative junction (AJ) mRNA; format: cell-based, human; settings: Homo sapiens
Summary of the method: (§7)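 A673 cells (normalized to PPIA) or K562 cells (normalized to GAPDH or GUSB) were treated 24 h at 37 °C with an 11-point 3-fold dilution series, top 10 uM, DMSO ≤0.25%. Cell lysates went to one-step RT-qPCR measuring canonical- and alternative-junction MYB or HTT transcripts.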

[7] = system: MYB mRNA; experiment: RT-qPCR splicing assay, MYB canonical junction (CJ) and alternative junction (AJ) mRNA; format: cell-based, human; settings: Homo sapiens
Summary of the method: as §7

[8] = system: Target C; experiment: RT-qPCR splicing assay panel, Target C canonical junction (CJ) mRNA; format: cell-based, human; settings: Homo sapiens
Summary of the method: as §6

[9] = read-out: Effect on protein abundance, MYB (IC50 category); HiBiT K562 cell line, 24 hours, top dose 10 μM
[10] = read-out: Effect on protein abundance, HTT (IC50 category); HiBiT K562 cell line, 24 hours, top dose 10 μM
[11] = HiBiT K562 cell line, 24 hours, top dose 10 μM; read-out: Effect on protein abundance, MYB (IC50 category)
[12] = HiBiT K562 cell line, 24 hours, top dose 10 μM; read-out: Effect on protein abundance, HTT (IC50 category)
[13] = HiBiT K562 cell line, 24 hours, top dose 10 μM
[14] = K562 cells, 72 hours, Cell Titer Glo 2.0
[15] = decrease in HTT canonical junction (CJ) mRNA, RT-qPCR, read-out: HTT CJ IC50
[16] = increase in HTT alternative junction (AJ) mRNA, RT-qPCR, read-out: HTT AJ AC50

IC50 [1, 11]	IC50 [2, 12]	IC50 [3, 13]	GI50 [5, 14]	Compound	further results
				Cc1cn2nc(-c3ccc4c(=O)n(C5CCNCC5)ccc4c3)cc(CC(=O)N(C)C)c2n1 [Compound 532, N,N-dimethyl-2-[2-methyl-6-[1-oxo-2-(4-piperidyl)-6-isoquinolyl]imidazo[1,2-b]pyridazin-8-yl]acetamide]	IC50 [1, 9]: 100 to 1000 nM; IC50 [2, 10]: 100 to 1000 nM; IC50 [3]: 100 to 1000 nM; IC50 ([4]; read-out: SMN2 IC50 (decrease in CJ mRNA levels)): < 100 nM; GI50 [5]: 100 to 1000 nM; AC50 ([6]; read-out: HTT AJ AC50 (nM)): 100 to 1000 nM; IC50 ([6]; read-out: HTT CJ IC50 (nM)): 100 to 1000 nM; IC50 ([6]; read-out: HTT IC50 (decrease in CJ mRNA levels)): 100 to 1000 nM; AC50 ([7]; read-out: MYB AJ AC50 (nM)): 100 to 1000 nM; IC50 ([7]; read-out: MYB CJ IC50 (nM)): 100 to 1000 nM; IC50 ([7]; read-out: MYB IC50 (decrease in CJ mRNA levels)): 100 to 1000 nM; IC50 ([8]; read-out: Target C IC50 (decrease in CJ mRNA levels)): 1000 to 10000 nM
				Cc1cn2nc(-c3ccc4c(=O)n(C5CCN(C6CCC6)C6(CC6)C5)ncc4n3)cc(C)c2n1 (centres unmarked) [Compound 1540, 6-(4-cyclobutyl-4-azaspiro[2.5]octan-7-yl)-2-(2,8-dimethylimidazo[1,2-b]pyridazin-6-yl)pyrido[2,3-d]pyridazin-5-one]	IC50 [1, 9]: 100 to 1000 nM; IC50 [2, 10]: 100 to 1000 nM; IC50 [3]: 100 to 1000 nM; IC50 ([4]; read-out: SMN2 (decrease in CJ mRNA levels, IC50)): < 100 nM; GI50 [5]: 100 to 1000 nM; IC50 ([6]; read-out: HTT (decrease in CJ mRNA levels, IC50)): 100 to 1000 nM; AC50 ([6]; read-out: HTT AJ AC50 (nM)): 100 to 1000 nM; IC50 ([6]; read-out: HTT CJ IC50 (nM)): 100 to 1000 nM; IC50 ([7]; read-out: MYB (decrease in CJ mRNA levels, IC50)): 100 to 1000 nM; AC50 ([7]; read-out: MYB AJ AC50 (nM)): 100 to 1000 nM; IC50 ([7]; read-out: MYB CJ IC50 (nM)): 100 to 1000 nM; IC50 ([8]; read-out: Target C (decrease in CJ mRNA levels, IC50)): 100 to 1000 nM
1000 to 10000 nM	> 10000 nM	> 10000 nM	1000 to 10000 nM	Cc1cc(-c2ccc3c(=O)n(C4CCNCC4)c(C)nc3c2)cc2cn(C)nc12 [Compound 313]	IC50 ([4]; Table 5 panel, canonical junction qPCR, compound concentration having 50% response in CJ decrease, read-out: SMN2 IC50 (decrease in CJ mRNA levels)): 100 to 1000 nM; IC50 [6, 15]: > 10000 nM; AC50 [6, 16]: > 10000 nM; IC50 ([6]; Table 5 panel, canonical junction qPCR, compound concentration having 50% response in CJ decrease, read-out: HTT IC50 (decrease in CJ mRNA levels)): > 10000 nM; IC50 ([8]; Table 5 panel, canonical junction qPCR, compound concentration having 50% response in CJ decrease, read-out: Target C IC50 (decrease in CJ mRNA levels)): > 10000 nM
< 100 nM	1000 to 10000 nM	> 10000 nM	< 100 nM	Cc1c(O)c(-c2ncc3c(=O)n(C45CCC(N)(CC4)CC5)ccc3n2)cc2cn(C)nc12 [Compound 1323]	
100 to 1000 nM	100 to 1000 nM	100 to 1000 nM	100 to 1000 nM	Cc1c(O)c(-c2ccc3c(=O)n(C4CCNCC4)cnc3n2)cc2cn(C)nc12 [Compound 505, 7-(6-hydroxy-2,7-dimethyl-2H-indazol-5-yl)-3-(piperidin-4-yl)pyrido[2,3-d]pyrimidin-4(3H)-one]	
100 to 1000 nM	100 to 1000 nM	1000 to 10000 nM	100 to 1000 nM	Cc1c(O)c(-c2ncc3c(=O)n(C4CCC(N)C4)ccc3n2)cc2cn(C)nc12 (centres unmarked) [Compound 1321]	
100 to 1000 nM	1000 to 10000 nM	1000 to 10000 nM	1000 to 10000 nM	Cc1cn2nc(-c3ccc4c(=O)c(C5CCNCC5)cn(C)c4c3)cc(C)c2n1 [Compound 590]	
1000 to 10000 nM	> 10000 nM	> 10000 nM	1000 to 10000 nM	Cc1cn2cc(-c3ccc4c(=O)c(C5CCNCC5)cn(C)c4c3)nc(C)c2n1 [Compound 591]	
100 to 1000 nM	100 to 1000 nM	100 to 1000 nM	100 to 1000 nM	Cc1cn2cc(-c3ncc4c(=O)n(C5CCNCC5)ccc4n3)cc(F)c2n1 [Compound 1213, 2-(8-fluoro-2-methylimidazo[1,2-a]pyridin-6-yl)-6-(piperidin-4-yl)pyrido[4,3-d]pyrimidin-5(6H)-one]	
100 to 1000 nM	100 to 1000 nM	1000 to 10000 nM	100 to 1000 nM	Cc1c(O)c(-c2ncc3c(=O)n([C@@H]4CC[C@H](N)C4)ccc3n2)cc2cn(C)nc12 [Compound 1333]	
< 100 nM	< 100 nM	< 100 nM	< 100 nM	Cc1nc2cc(O)c(-c3ccc4c(=O)n(C5CCNCC5)ccc4n3)cc2o1 [Compound 1237]	
> 10000 nM	> 10000 nM	> 10000 nM	> 10000 nM	Cc1cn2c(n1)CCC(c1cc(F)c3c(=O)n(C4CCNCC4)cnc3c1)C2 (centres unmarked) [Compound 502, 5-fluoro-7-{2-methyl-5H,6H,7H,8H-imidazo[1,2-a]pyridin-6-yl}-3-(piperidin-4-yl)quinazolin-4-one]	
< 100 nM	100 to 1000 nM	100 to 1000 nM	100 to 1000 nM	Cc1c(O)c(-c2ncc3c(=O)n([C@H]4[C@@H]5CNC[C@@H]54)ccc3n2)cc2cn(C)nc12 [Compound 1326]	
> 10000 nM	> 10000 nM	> 10000 nM	> 10000 nM	O=c1c2c(F)cc(-c3cn[nH]c3)cc2ncn1C1CCNCC1 [Compound 321]	IC50 [6, 15]: > 10000 nM; AC50 [6, 16]: > 10000 nM; IC50 ([7]; decrease in MYB canonical junction (CJ) mRNA, RT-qPCR, read-out: MYB CJ IC50): 1000 to 10000 nM; AC50 ([7]; increase in MYB alternative junction (AJ) mRNA, RT-qPCR, read-out: MYB AJ AC50): 1000 to 10000 nM
1000 to 10000 nM	> 10000 nM	> 10000 nM	> 10000 nM	Cc1nc2c(o1)CN(c1cc(F)c3c(=O)n(C4CCNCC4)cnc3c1)CC2 [Compound 508, 5-fluoro-7-{2-methyl-4H,6H,7H-[1,3]oxazolo[5,4-c]pyridin-5-yl}-3-(piperidin-4-yl)quinazolin-4-one; trifluoroacetic acid]	
< 100 nM	< 100 nM	< 100 nM	< 100 nM	Cn1cc2cc(-c3ccc4c(=O)n(C5CCNCC5)ccc4n3)c(O)c(F)c2n1 [Compound 1226]	
< 100 nM	< 100 nM	< 100 nM	< 100 nM	Cc1cn2nc(-c3cc(O)c4c(=O)n([C@H]5CCNC6(CC6)C5)ncc4c3)cc(C)c2n1 [Compound 469]	
< 100 nM	< 100 nM	100 to 1000 nM	< 100 nM	Cc1c(O)c(-c2ncc3c(=O)n(C4CCNCC4)ccc3n2)cc2cn(C)nc12 [Compound 1224]	
100 to 1000 nM	100 to 1000 nM	100 to 1000 nM	100 to 1000 nM	Cn1cc2nc(-c3cc(F)c4c(=O)n(C5CCNC6(CC6)C5)ncc4c3)ccc2n1 (centres unmarked) [Compound 563]	
